# Assay results taken from patent US20240067672A1, “FLAVONE DERIVATIVE FOR TREATING TUMORS AND USE THEREOF” (SICHUAN FUSHENGYUAN TECHNOLOGY CO., LTD, priority 2019, published 2024).
# Where two headings read alike, the source gives them in different places.
# How the values were obtained:
# SMMC7721 hepatoma cells = experiment: Anti-tumor activity in vitro, MTT method, SMMC7721; format: cell-based, human; conditions: for IC50: MTT; for IC50 compared with Icaritin, SMMC7721 72 h: SMMC7721, 72 h after administration
# Experimental: (§1) The effects of Icaritin and its derivatives on the activities of HepG2 and SMMC7721 hepatoma cells were investigated by a MTT method. […] After reaction for 48, 7 2 h, each well was added with 20 μL 5 mg/mL, of MTT solution, and incubated in a cell incubator for 3-4 h. Then the liquid in the well plates was sucked to discard. Each well was added with 150 μL of dimethyl sulfoxide (DMSO), and shaken on an enzyme-labeled instrument for 30 s at ambient temperature so that the Formazan crystals were dissolved sufficiently. The absorbance value A of each well at 570 nm was detected by the enzyme-labeled instrument, and the experiment was repeated for 3 times.
# [1] = Determination of solubility (HPLC); format: physicochemical; conditions: for solubility: 37 °C, thermodynamic from solid
# Experimental: About 1.325 mg of Icaritin and the synthesized derivative were weighed and dissolved in 1.5 mL methanol respectively, then diluted with methanol into solutions of 10, 20, 50, 100, 150, 200, 500 μg/mL, and filtered over an organic-system filter head of 0.45 μm into sample bottles, obtaining the samples for test. Four parts of Icaritin and the synthesized derivative were weighed respectively, 1.00 mg for each part, and placed into 1.5 mL EP tubes, and 1 mL of water, normal saline, PBS, and 0.1% Tween 80 were respectively added thereto. The obtained solutions were ultrasonicated for 1 h, placed in a water bath at 37° C. overnight, and centrifuged at 10000 r/min for 3 min to collect supernatants. The supernatants were taken into sample bottles and detected by HPLC. The experiments were conducted in parallel for three times. The detection of HPLC is conducted under conditions of a chromatographic column of waters Symmetry C18, a mobile phase of a solution of methanol and water with a ratio of 80:20, a flow rate of 1.0 mL/min, a column temperature of 30° C., a detection wavelength of 210 nm, a run time of 30 min, and a sample load of 20 μL.
# HepG2 hepatoma cells = experiment: Anti-tumor activity in vitro, MTT method, HepG2; format: cell-based, human; conditions: for IC50: MTT; for IC50 compared with Icaritin, HepG2 72 h: HepG2, 72 h after administration; for IC50 compared with Icaritin, 48 and 72 h: HepG2 and SMMC7721, 48 and 72 h
# Experimental: as §1
# [2] = SMMC7721, 48 h, read-out: IC50 SMMC7721 48 h
# [3] = SMMC7721, 72 h, read-out: IC50 SMMC7721 72 h
# [4] = HepG2, 48 h, read-out: IC50 HepG2 48 h
# [5] = HepG2, 72 h, read-out: IC50 HepG2 72 h
# [6] = Homo sapiens, SMMC-7721, SMMC7721, 48 h, read-out: IC50 SMMC7721 48 h
# [7] = Homo sapiens, SMMC-7721, SMMC7721, 72 h, read-out: IC50 SMMC7721 72 h
# [8] = aqueous with cosolvent or surfactant or cyclodextrin
# [9] = Homo sapiens, HepG2, 48 h, read-out: IC50 HepG2 48 h
# [10] = Homo sapiens, HepG2, 72 h, read-out: IC50 HepG2 72 h
SMILES,IC50 (SMMC7721 hepatoma cells; [2]),IC50 (SMMC7721 hepatoma cells; [3]),"Solubility, 0.1% Tween 80 [1]","Solubility, Normal Saline [1]","Solubility, PBS [1]","Solubility, Water [1]",IC50 (HepG2 hepatoma cells; [4]),IC50 (HepG2 hepatoma cells; [5]),"IC50 compared with Icaritin, SMMC7721 72 h (SMMC7721 hepatoma cells)","IC50 compared with Icaritin, HepG2 72 h (HepG2 hepatoma cells)",IC50 (SMMC7721 hepatoma cells; [6]),IC50 (SMMC7721 hepatoma cells; [7]),solubility ([1]; aqueous buffer),"solubility [1, 8]",solubility ([1]; saline or isotonic),solubility ([1]; water),IC50 (HepG2 hepatoma cells; [9]),IC50 (HepG2 hepatoma cells; [10]),further results
COc1ccc(-c2oc3c(CC=C(C)C)c(O)cc(O)c3c(=O)c2OC(=O)CCC(=O)OCCCCOCc2cn(CCOC3OC(CO)C(O)C(O)C3O)nn2)cc1 (centres unmarked) [Compound 88],> 100 µM,40.5 ± 1.56 µM,8.384 ± 1.363 µg/mL,7.399 ± 0.384 µg/mL,Insoluble,7.597 ± 1.038 µg/mL,> 100 µM,> 100 µM,–,–,–,–,–,–,–,–,–,–,–
COc1ccc(-c2oc3c(CC=C(C)C)c(O)cc(O)c3c(=O)c2OC(=O)CCC(=O)OCCCCOCc2cn(C3OC(CO)C(O)C(O)C3O)nn2)cc1 (centres unmarked) [Compound 87],> 100 µM,12.7 ± 1.02 µM,–,–,–,–,> 100 µM,7.03 ± 0.67 µM,less than that of Icaritin,less than that of Icaritin,–,–,–,–,–,–,–,–,"Solubility, 0.1% Tween 80 ([1]; 0.1% Tween 80, 37° C. overnight, n = 3): 1.358 ± 0.235 µg/mL; Solubility, PBS ([1]; PBS, 37° C. overnight, n = 3): Insoluble; Solubility, Normal Saline ([1]; normal saline, 37° C. overnight, n = 3): 1.386 ± 0.743 µg/mL; Solubility, Water ([1]; water, 37° C. overnight, n = 3): 1.277 ± 0.836 µg/mL"
COc1ccc(-c2oc3c(CC=C(C)C)c(O)cc(O)c3c(=O)c2OC(=O)CCC(=O)OCCCOCc2cn(CCOCCOC3OC(CO)C(O)C(O)C3O)nn2)cc1 (centres unmarked) [Compound 97],> 100 µM,8.68 ± 0.52 µM,6.123 ± 0.931 µg/mL,5.036 ± 1.031 µg/mL,5.031 ± 0.901 µg/mL,5.474 ± 0.394 µg/mL,> 100 µM,> 100 µM,less than that of Icaritin,–,–,–,–,–,–,–,–,–,–
COc1ccc(-c2oc3c(CC=C(C)C)c(O)cc(O)c3c(=O)c2OC(=O)CCC(=O)OCCCOCc2cn(CCO[C@H]3O[C@@H](CO)[C@H](O)[C@@H](O)[C@@H]3O)nn2)cc1 [Compound 96],–,–,–,–,–,–,–,–,less than that of Icaritin,less than that of Icaritin,29.7 ± 1.23 µM,6.65 ± 1.29 µM,15.5 ± 1.31 µg/mL,16.8 ± 0.422 µg/mL,16.8 ± 0.313 µg/mL,16.9 ± 0.462 µg/mL,12 ± 0.82 µM,5.56 ± 0.8 µM,"solubility compared with that of the bulk drug (Icaritin) [1]: improved effectively; IC50 compared with Icaritin, 48 and 72 h (HepG2 hepatoma cells): less than those of Icaritin"
COc1ccc(-c2oc3c(CC=C(C)C)c(O)cc(O)c3c(=O)c2OC(=O)CCC(=O)OCCOCCOCCOCc2cn(CCO[C@H]3O[C@@H](CO)[C@H](O)[C@@H](O)[C@@H]3O)nn2)cc1 [Compound 58],–,–,–,–,–,–,–,–,less than that of Icaritin,–,> 100 µM,2.51 ± 0.72 µM,3.82 ± 0.874 µg/mL,3.89 ± 0.941 µg/mL,3.68 ± 0.947 µg/mL,3.64 ± 0.374 µg/mL,19.7 ± 0.52 µM,20 ± 2.12 µM,–
COc1ccc(-c2oc3c(CC=C(C)C)c(O)cc(O)c3c(=O)c2OC(=O)CCC(=O)OCCN(CCOCc2cn(CCOCCO[C@H]3O[C@@H](CO)[C@H](O)[C@@H](O)[C@@H]3O)nn2)c2ccccc2)cc1 [Compound 105],–,–,–,–,Insoluble,–,–,–,less than that of Icaritin,less than that of Icaritin,> 100 µM,9.57 ± 1.2 µM,–,23.4 ± 1.12 µg/mL,23.9 ± 0.982 µg/mL,23.6 ± 1.23 µg/mL,15.1 ± 1.32 µM,7.69 ± 0.04 µM,"solubility compared with that of the bulk drug (Icaritin) [1]: improved effectively; IC50 compared with Icaritin, 48 and 72 h (HepG2 hepatoma cells): less than those of Icaritin"
COc1ccc(-c2oc3c(CC=C(C)C)c(O)cc(O)c3c(=O)c2OC(=O)CCC(=O)OCCOCCOCc2cn([C@H]3O[C@@H](CO)[C@H](O)[C@@H](O)[C@@H]3O)nn2)cc1 [Compound 64],–,–,–,Insoluble,–,–,–,–,–,–,> 100 µM,> 100 µM,0.991 ± 0.314 µg/mL,1.08 ± 0.756 µg/mL,–,2.24 ± 0.941 µg/mL,> 100 µM,32.6 ± 3.12 µM,–
COc1ccc(-c2oc3c(CC=C(C)C)c(O)cc(O)c3c(=O)c2OC(=O)CCC(=O)OCCOCc2cn(CCOC3OC(CO)C(O)C(O)C3O)nn2)cc1 (centres unmarked) [Compound 72],> 100 µM,> 100 µM,5.697 ± 1.312 µg/mL,5.673 ± 1.031 µg/mL,5.656 ± 1.131 µg/mL,5.852 ± 0.748 µg/mL,> 100 µM,> 100 µM,–,–,–,–,–,–,–,–,–,–,–
COc1ccc(-c2oc3c(CC=C(C)C)c(O)cc(O)c3c(=O)c2OC(=O)CCC(=O)NCCCCCOCc2cn(C3O[C@H](CO)[C@@H](O)[C@H](O)[C@H]3O)nn2)cc1 (some centres unmarked) [Compound 81],–,–,Insoluble,Insoluble,Insoluble,Insoluble,–,–,–,less than that of Icaritin,> 100 µM,22.2 ± 1.45 µM,–,–,–,–,> 100 µM,12 ± 1.23 µM,–
COc1ccc(-c2oc3c(CC=C(C)C)c(O)cc(O)c3c(=O)c2OC(=O)CCC(=O)OCCN(CCOCc2cn(CCO[C@@H]3O[C@H](CO)[C@@H](O)[C@H](O)[C@H]3O)nn2)c2ccccc2)cc1 [Compound 104],–,–,Insoluble,Insoluble,Insoluble,Insoluble,–,–,less than that of Icaritin,less than that of Icaritin,> 100 µM,12.9 ± 1.03 µM,–,–,–,–,> 100 µM,9.02 ± 0.27 µM,–
